Laboratory results taken from BindingDB's records for doi:10.1016/j.bmcl.2011.11.065 (Nerviano Medical Sciences, 2011).

Molecular target: 3-phosphoinositide-dependent protein kinase 1 (PDPK1) (Homo sapiens) (UniProt O15530)
Test: Inhibition of PDK1

SMILES	IC50
CN1CCN(c2ccc(OC(F)(F)F)c(Nc3nccc(-c4cc5c(n4C)CCNC5=O)n3)c2)CC1	> 10 µM
CN1CCN(c2ccc(OC(F)(F)F)c(Nc3nccc(-c4cc(C(N)=O)cn4C)n3)c2)CC1	> 10 µM
